In ChEMBL document CHEMBL1133138, “Substituted 2-aminopyridines as inhibitors of nitric oxide synthases” (Bioorg Med Chem Lett, 2000):

Experiments:
[1] = target: T1, Nitric oxide synthase 3 (Homo sapiens, UniProt P29474)
T1 sequence (P29474 whole entry): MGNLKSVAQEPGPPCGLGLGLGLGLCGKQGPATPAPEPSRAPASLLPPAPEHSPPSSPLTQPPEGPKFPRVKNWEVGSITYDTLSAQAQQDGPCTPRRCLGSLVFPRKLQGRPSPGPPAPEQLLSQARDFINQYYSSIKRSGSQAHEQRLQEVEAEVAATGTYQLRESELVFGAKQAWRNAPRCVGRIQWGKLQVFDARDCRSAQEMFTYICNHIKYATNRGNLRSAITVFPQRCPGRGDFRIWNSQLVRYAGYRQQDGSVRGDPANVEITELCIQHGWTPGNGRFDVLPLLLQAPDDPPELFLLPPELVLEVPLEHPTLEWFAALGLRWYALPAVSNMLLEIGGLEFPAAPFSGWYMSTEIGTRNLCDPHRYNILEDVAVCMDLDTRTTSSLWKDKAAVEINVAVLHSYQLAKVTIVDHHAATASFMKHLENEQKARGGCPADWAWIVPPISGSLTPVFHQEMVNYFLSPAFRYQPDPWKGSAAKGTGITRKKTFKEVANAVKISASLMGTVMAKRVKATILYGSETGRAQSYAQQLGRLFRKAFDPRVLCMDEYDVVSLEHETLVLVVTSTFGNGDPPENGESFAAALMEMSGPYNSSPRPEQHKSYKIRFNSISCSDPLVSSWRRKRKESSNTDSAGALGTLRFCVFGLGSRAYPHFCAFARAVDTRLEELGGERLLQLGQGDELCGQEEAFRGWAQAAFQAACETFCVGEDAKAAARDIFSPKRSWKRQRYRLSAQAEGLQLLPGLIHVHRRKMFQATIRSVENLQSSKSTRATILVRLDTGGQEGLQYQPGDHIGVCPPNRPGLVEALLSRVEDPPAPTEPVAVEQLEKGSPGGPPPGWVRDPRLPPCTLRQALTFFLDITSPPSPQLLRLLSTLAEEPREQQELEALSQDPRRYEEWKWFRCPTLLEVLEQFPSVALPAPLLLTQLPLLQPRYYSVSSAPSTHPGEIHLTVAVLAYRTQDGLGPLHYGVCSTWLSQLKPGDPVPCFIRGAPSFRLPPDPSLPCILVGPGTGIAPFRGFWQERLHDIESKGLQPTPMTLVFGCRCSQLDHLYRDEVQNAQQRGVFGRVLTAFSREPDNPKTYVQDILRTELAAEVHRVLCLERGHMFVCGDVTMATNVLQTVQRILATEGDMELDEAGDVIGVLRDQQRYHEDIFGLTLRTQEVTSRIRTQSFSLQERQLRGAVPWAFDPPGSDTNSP

[2] = target: Nitric oxide synthase, inducible (Homo sapiens, UniProt P35228)
Nitric oxide synthase, inducible, sequence (P35228 whole entry): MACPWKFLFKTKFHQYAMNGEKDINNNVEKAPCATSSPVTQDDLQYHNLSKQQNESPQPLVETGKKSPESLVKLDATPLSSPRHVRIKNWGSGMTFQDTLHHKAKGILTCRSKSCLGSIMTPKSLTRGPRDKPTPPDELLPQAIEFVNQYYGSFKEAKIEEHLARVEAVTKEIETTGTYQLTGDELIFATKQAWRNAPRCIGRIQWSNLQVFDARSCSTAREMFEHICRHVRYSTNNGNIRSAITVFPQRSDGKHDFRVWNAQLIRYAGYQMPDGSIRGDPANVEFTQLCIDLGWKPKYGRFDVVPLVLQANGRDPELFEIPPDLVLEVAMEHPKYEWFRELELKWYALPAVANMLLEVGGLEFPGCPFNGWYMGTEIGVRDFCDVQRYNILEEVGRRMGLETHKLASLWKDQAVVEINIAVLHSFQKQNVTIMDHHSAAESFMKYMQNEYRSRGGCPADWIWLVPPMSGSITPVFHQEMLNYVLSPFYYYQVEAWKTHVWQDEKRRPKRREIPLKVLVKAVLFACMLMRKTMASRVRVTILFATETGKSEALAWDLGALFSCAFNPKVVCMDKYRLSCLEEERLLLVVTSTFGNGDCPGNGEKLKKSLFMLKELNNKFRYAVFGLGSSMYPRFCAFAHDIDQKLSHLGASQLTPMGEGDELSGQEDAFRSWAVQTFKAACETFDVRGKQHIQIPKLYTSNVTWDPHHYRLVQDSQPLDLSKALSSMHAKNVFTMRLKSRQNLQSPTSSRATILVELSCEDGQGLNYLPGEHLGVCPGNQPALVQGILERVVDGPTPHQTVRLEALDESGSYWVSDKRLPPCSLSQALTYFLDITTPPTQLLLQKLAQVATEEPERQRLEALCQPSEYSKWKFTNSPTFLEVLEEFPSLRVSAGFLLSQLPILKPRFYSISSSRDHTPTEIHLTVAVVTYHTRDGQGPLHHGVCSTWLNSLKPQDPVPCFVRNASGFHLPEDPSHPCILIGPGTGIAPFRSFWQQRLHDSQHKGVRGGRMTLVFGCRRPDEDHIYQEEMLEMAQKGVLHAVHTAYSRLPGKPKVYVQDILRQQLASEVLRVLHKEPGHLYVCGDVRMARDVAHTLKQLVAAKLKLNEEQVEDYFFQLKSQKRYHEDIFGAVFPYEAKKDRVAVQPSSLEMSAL

[3] = target: T2, Nitric oxide synthase 1 (Homo sapiens, UniProt P29475)
T2 sequence (P29475 whole entry): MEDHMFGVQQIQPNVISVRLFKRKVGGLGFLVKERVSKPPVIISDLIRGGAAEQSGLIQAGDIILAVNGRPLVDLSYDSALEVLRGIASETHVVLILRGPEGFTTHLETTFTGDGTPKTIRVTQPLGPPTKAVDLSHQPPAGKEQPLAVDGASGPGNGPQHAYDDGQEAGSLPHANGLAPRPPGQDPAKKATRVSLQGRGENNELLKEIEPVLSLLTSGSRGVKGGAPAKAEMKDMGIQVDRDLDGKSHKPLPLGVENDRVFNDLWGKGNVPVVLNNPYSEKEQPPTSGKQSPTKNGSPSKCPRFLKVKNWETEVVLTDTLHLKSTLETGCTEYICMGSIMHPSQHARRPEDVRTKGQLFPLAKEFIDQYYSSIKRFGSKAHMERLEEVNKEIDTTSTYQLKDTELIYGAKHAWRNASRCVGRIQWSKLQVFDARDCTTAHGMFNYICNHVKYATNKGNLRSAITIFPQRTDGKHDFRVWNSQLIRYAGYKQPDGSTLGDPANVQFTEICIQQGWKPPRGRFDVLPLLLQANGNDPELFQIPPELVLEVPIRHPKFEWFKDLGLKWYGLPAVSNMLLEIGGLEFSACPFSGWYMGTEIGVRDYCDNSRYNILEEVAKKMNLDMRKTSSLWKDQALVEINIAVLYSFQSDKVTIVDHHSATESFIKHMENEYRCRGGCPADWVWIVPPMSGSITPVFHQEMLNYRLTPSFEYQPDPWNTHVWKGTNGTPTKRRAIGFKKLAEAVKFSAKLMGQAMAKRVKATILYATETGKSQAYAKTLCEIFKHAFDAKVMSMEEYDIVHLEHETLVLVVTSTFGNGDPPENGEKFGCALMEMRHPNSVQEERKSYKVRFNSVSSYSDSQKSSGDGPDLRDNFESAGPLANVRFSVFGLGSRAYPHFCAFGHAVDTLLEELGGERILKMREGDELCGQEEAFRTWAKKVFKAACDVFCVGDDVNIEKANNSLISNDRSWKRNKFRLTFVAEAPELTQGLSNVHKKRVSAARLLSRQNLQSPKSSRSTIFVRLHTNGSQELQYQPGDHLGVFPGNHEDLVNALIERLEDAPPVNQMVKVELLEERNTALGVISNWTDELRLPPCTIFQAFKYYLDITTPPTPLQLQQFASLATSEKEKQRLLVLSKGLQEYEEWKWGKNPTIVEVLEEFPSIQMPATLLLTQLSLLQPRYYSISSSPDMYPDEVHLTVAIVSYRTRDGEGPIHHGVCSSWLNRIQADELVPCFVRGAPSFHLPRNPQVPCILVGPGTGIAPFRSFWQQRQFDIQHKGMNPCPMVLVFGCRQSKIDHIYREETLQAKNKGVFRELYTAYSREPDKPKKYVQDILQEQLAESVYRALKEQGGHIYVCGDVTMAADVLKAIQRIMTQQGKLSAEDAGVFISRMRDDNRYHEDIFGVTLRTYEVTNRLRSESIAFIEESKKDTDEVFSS

[4] = target: T3, Nitric oxide synthase 3 (Homo sapiens) (UniProt P29474); assay: Inhibitory activity against Endothelial nitric oxide synthase; conditions: concentration not given here
T3 sequence (whole entry): T1 sequence (P29474 whole entry)

[5] = target: T2, Nitric oxide synthase 1; assay: Inhibitory activity against Neuronal nitric oxide synthase; conditions: concentration not given here
[6] = tested on: Mus musculus; assay: Compound was evaluated for LPS induced nitric oxide increase in mouse plasma after peroral administration of the compound; assay type: functional; conditions: po
[7] = tested on: Rattus norvegicus; assay: Dose required to increase mean aterial blood pressure (MAP) by 40 mm versus control after intravenous administration in rats; assay type: functional
[8] = tested on: Rattus norvegicus; assay: Dose required to increase mean aterial blood pressure (MAP) by 40 mm versus control after intravenous administration in rat; assay type: functional

Row | Structure (SMILES) | IC50 [1] | IC50 [2] | IC50 [3] | further results
1 | Cc1cc(N)nc(CCC(C)C)c1 | 1.9 µM | 0.076 µM | 0.51 µM | –
2 | CCCCc1cc(C)cc(N)n1 | – | 0.046 µM | – | inhibition [4]: 40%; inhibition [5]: 59%
3 | N=C(N)NN [PIMAGEDINE] | 500 µM | 101 µM | 118 µM | –
4 | Cc1ccnc(N)c1C | 0.15 µM | – | – | –
5 | Nc1nccc2c1CCCC2 | 24 µM | 29 µM | 11 µM | –
6 | CCc1c(C)ccnc1N | 3.3 µM | 2.7 µM | – | –
7 | Cc1cc(N)nc(CC(C)C)c1 | 0.15 µM | 0.028 µM | 0.1 µM | –
8 | CCCc1c(C)ccnc1N | – | 34.5 µM | – | –
9 | CC(=N)NCCCC[C@H](N)C(=O)O [L-NIL] | 7.9 µM | 1.4 µM | 18.4 µM | –
10 | Cc1cc(N)nc2c1CCCC2 | 19.8 µM | 4 µM | 2.4 µM | –
11 | Nc1ccccn1 [2-AMINOPYRIDINE] | 2.8 µM | 1.9 µM | – | –
12 | Cc1ccnc(N)c1N | – | 0.059 µM | – | –
13 | Cc1ccnc(N)c1 | – | – | – | ED50 [6]: 25 mg/kg; HD40 [7]: 0.11 mg/kg
14 | CC1CCN=C(N)C1 (stereo not drawn) | – | 0.016 µM | – | ED50 [6]: 0.15 mg/kg; HD50 [8]: 1.8 mg/kg

Continued, in another order:

Row | IC50 [1] | IC50 [2] | IC50 [3] | Structure (SMILES) | further results
15 | 0.6 µM | 0.81 µM | 0.34 µM | Cc1cnc(N)cc1C | –
16 | 16.6 µM | 4.1 µM | 10.6 µM | Nc1cc2c(cn1)CCCC2 | –
17 | – | > 50 µM | – | Nc1cc(Cl)ccn1 | –
18 | 3.4 µM | 1.3 µM | 0.61 µM | CCc1cnc(N)cc1C | –
19 | 17.2 µM | 12.7 µM | 3.3 µM | Cc1cc(N)nc(CCCc2ccccc2)c1 | –
20 | 0.049 µM | 0.33 µM | – | CCc1cc(C)cc(N)n1 | inhibition [5]: 42%
21 | 0.045 µM | 0.11 µM | – | Cc1cc(C)nc(N)c1 | –
22 | – | 0.94 µM | 1.3 µM | Cc1cccnc1N | –
23 | – | > 50 µM | – | Nc1cc2ccccc2cn1 [ISOQUINOLIN-3-AMINE] | –
24 | – | > 50 µM | – | CCCc1ccnc(N)c1 | –
25 | 2.8 µM | 7.2 µM | 2.2 µM | Cc1ccc(N)nc1C | –
26 | 0.2 µM | 0.11 µM | 1.2 µM | Cc1cc(N)nc(C(C)C)c1 | –
27 | > 50 µM | > 50 µM | > 50 µM | Nc1ccc2c(n1)CCC2 | –
28 | 3.6 µM | 14.6 µM | 2 µM | Cc1cnc(N)c(C)c1 | –
29 | – | 0.6 µM | – | Cc1ccc(N)nc1 | –
